This passage reports Zone of inhibition and Infection index results from patent US20190166835A1, “Fungal Trisaccharide Ester Compounds and Use Thereof in Preparing Agents for Preventing and Controlling Plant Fungal Diseases” (SOUTH CHINA BOTANICAL GARDEN, CHINESE ACADEMY OF SCIENCES, priority 2017, published 2019).

Experiment [1] concerns Colletotrichum gloeosporioides. In words: agar diffusion test, in vitro inhibitory activity. The class given is cell-based. Conditions: 500 μg per 6 mm filter paper, PDA, 28° C., 72 or 96 hours. The source says: (§1) Experiment of in vitro inhibitory activities of the trisaccharide ester compounds 1 to 5 obtained in embodiment 2 against common plant pathogenic fungi of twelve genus.
(§2) The fungi used in the experiments include: 1) Alternaria solani (causing early blight of tomatoes), 2) Botryospuaeria berengeriana (causing ring rot of apples), 3) Botrytis cinerea (causing grey mould of tomatoes), 4) Colletotrichum gloeosporioides (causing anthracnose of mangos), 5) Curvularia lunata (which will infect bananas), 6) Fusarium oxysporium (causing fusarium wilt of bananas and watermelons), 7) Geotrichum citri-aurantii (causing sour rot of citrus), 8) Helminthosporium maydis (causing southern corn leaf blight), 9) Penicillium italicum (causing blue mould of citrus), 10) Peronophythora litchii (which will infect litchi), 11) Rhizoctonia solani (causing sheath blight of rice), and 12) Ustilaginoidea virens (causing false smut of rice).
(§3) The antifungal activities of the compounds 1 to 5 were determined by the agar diffusion test. The fungi were activated and respectively seeded onto petri dishes containing PDA solid culture medium, and spread uniformly with T-shaped spreaders. Each compound was dissolved in methanol to give a 50 mg/mL solution. 10 μL of the solution was then added dropwise onto a filter paper (with a diameter of 6 mm) and let dry in the clean bench such that each filter paper contained 500 μg of the compound eventually. The filter papers were then pressed to the pertri dishes mentioned above and left to incubate in dark at 28° C. for 72 or 96 hours, and then the inhibition widths were measured (a inhibition width refers to an average diameter of the zones of inhibition), wherein filter papers containing a same volume of methanol were used as negative controls.

Another experiment deals with Alternaria solani. The experiment can be described thus: agar diffusion test, in vitro inhibitory activity. In kind it is cell-based. Conditions: 500 μg per 6 mm filter paper, PDA, 28° C., 72 or 96 hours.
From the text: as §1, §2, §3
(In general: In agar diffusion tests the substance spreads into inoculated agar from a disc or well.)

The subject of experiment [2] is Botryospuaeria berengeriana. The experiment can be described thus: agar diffusion test, in vitro inhibitory activity. Particulars: 500 μg per 6 mm filter paper, PDA, 28° C., 72 or 96 hours. The class given is cell-based.
From the text: as §1, §2, §3

A further experiment relates to Fusarium oxysporium. In words: agar diffusion test, in vitro inhibitory activity. The class given is cell-based. Particulars: 500 μg per 6 mm filter paper, PDA, 28° C., 72 or 96 hours.
From the text: as §1, §2, §3

For another experiment, the system named is Botrytis cinerea. The experiment can be described thus: agar diffusion test, in vitro inhibitory activity. The class given is cell-based. Conditions: 500 μg per 6 mm filter paper, PDA, 28° C., 72 or 96 hours.
From the text: as §1, §2, §3

The test system of a further experiment is Curvularia lunata. The experiment can be described thus: agar diffusion test, in vitro inhibitory activity. In kind it is cell-based. Particulars: 500 μg per 6 mm filter paper, PDA, 28° C., 72 or 96 hours.
From the text: as §1, §2, §3

A further experiment has as its system Peronophythora litchii. In words: agar diffusion test, in vitro inhibitory activity. The class given is cell-based. Particulars: 500 μg per 6 mm filter paper, PDA, 28° C., 72 or 96 hours.
From the text: as §1, §2, §3

A further experiment concerns Rhizoctonia solani. The experiment can be described thus: agar diffusion test, in vitro inhibitory activity. The class given is cell-based. Conditions: 500 μg per 6 mm filter paper, PDA, 28° C., 72 or 96 hours.
From the text: as §1, §2, §3

The next experiment has as its system Penicillium italicum. In words: agar diffusion test, in vitro inhibitory activity. In kind it is cell-based. Conditions: 500 μg per 6 mm filter paper, PDA, 28° C., 72 or 96 hours.
From the text: as §1, §2, §3

Experiment [3] deals with Geotrichum citri-aurantii. In words: agar diffusion test, in vitro inhibitory activity. In kind it is cell-based. Particulars: 500 μg per 6 mm filter paper, PDA, 28° C., 72 or 96 hours.
From the text: as §1, §2, §3

The next experiment concerns Ustilaginoidea virens. In words: agar diffusion test, in vitro inhibitory activity. The class given is cell-based. Particulars: 500 μg per 6 mm filter paper, PDA, 28° C., 72 or 96 hours.
From the text: as §1, §2, §3

The next experiment deals with Helminthosporium maydis. In words: agar diffusion test, in vitro inhibitory activity. Particulars: 500 μg per 6 mm filter paper, PDA, 28° C., 72 or 96 hours. In kind it is cell-based.
From the text: as §1, §2, §3

Experiment [4] has as its system pathogenic fungi in the postharvest storage of citrus fruits. The experiment can be described thus: preservation of citrus in postharvest storage (infection index). Particulars: soaked 5 minutes, stored at 25° C. for 15 days. In kind it is in vivo, citrus reticulata blanco cv.shiyueju. Here is the method:
Experiment of the trisaccharide ester extract obtained in embodiment 2 in the preservation of citrus in postharvest storage Samples for the experiment: the trisaccharide ester extract (containing the compounds 1 to 4, with a mass ratio of about 60:35:4:1) obtained in embodiment 2 was dissolved in a small volume of ethanol and diluted with water to give treating solutions (200, 400 and 600 mg/L). The citrus fruits were soaked in the treating solutions for 5 minutes and left to dry. The fruits were then put in plastic baskets (the plastic baskets were surface-sterilized with 75% ethanol and left to dry in advance), sealed in polyethylene bags with a thickness of 0.02 mm, and stored at 25° C. for 15 days. The fruits were observed and their infection indexes were recorded. Calculation of the infection index: infection index=Σ(infection level×amount of fruits of the level)/([…]×total amount of fruits)×100%; infection level: 0 refers to “no obvious infection”, 1 refers to “slight infection”, 2 refers to “infection area smaller than or equal to ¼ of fruit surface”; 3 refers to “infection area larger than ¼ and smaller than ½ of fruit surface”, and 4 refers to “infection area larger than or equal to ½ of fruit surface”. Three replicates were set for each treating solution, and 60 fruits for each replicate. Fruits for the experiments: citrus reticulata blanco cv.shiyueju, harvested from Conghua Orchard.

With `CCCCCCCCCC(=O)O[C@@H]1C(CO[C@H]2OC(CO)[C@H](O)[C@H](O)C2O)O[C@H](O[C@H]2OC(CO)[C@@H](O)[C@H](O)C2O)C(OC(=O)CCC(C)CC)[C@H]1OC(=O)C(C)CC` (stereo partly drawn) [Compound 2, 4-O-decanoyl-6-O-β-L-mannosyl-3-O-(2-methylbutyryl)-2-O-(4-methylhexanoyl)trehalose], the Zone of inhibition in [1] is 10 mm; with Alternaria solani, 14 mm; in experiment [2], 14 mm; in the experiment with Fusarium oxysporium it was 12 mm; with Botrytis cinerea it was 14 mm; in the experiment with Curvularia lunata it was 15 mm. In addition, the Zone of inhibition is given as 12 mm in the experiment on Peronophythora litchii; 16 mm with Rhizoctonia solani; 22 mm in the experiment with Penicillium italicum; 15 mm in experiment [3]; 20 mm with Ustilaginoidea virens; 18 mm in the experiment on Helminthosporium maydis.
`CCC(C)CCCCCCC(=O)O[C@@H]1C(CO[C@H]2OC(CO)[C@H](O)C(O)C2O)O[C@H](O[C@H]2OC(COC(C)=O)[C@@H](O)C(O)C2O)C(OC(=O)CCC(C)CC)C1OC(=O)C(C)CC` (single isomer, unassigned) [Compound 5, 6-O-β-L-mannosyl-3-O-(2-methylbutyryl)-4-O-(8-methyldecanoyl)-2-O-(4-methylhexanoyl)-6′-O-acetyltrehalose]: the Zone of inhibition in [1] is 8 mm; with Alternaria solani, 10 mm; in experiment [2], 8 mm; with Fusarium oxysporium, 8 mm; in the experiment with Botrytis cinerea, 9 mm; in the experiment on Curvularia lunata, 16 mm. In addition, the Zone of inhibition in the experiment with Peronophythora litchii was determined as 10 mm; with Rhizoctonia solani, 12 mm; in the experiment with Penicillium italicum it was 14 mm; in experiment [3], 15 mm; with Ustilaginoidea virens, 16 mm; in the experiment with Helminthosporium maydis, 18 mm.
On to `CN(C)C(=S)SSC(=S)N(C)C` [Thiram], for which the Infection index in [4] (treating solution 200 mg/L) amounted to 29.0 ± 1.9%; in [4] (treating solution 400 mg/L) it was 31.4 ± 0.9%; in experiment [4] (treating solution 600 mg/L), 29.2 ± 1.0%.
For the molecule `CCCCCCCC(=O)O[C@@H]1C(CO[C@H]2OC(CO)[C@H](O)[C@H](O)C2O)O[C@H](O[C@H]2OC(CO)[C@@H](O)[C@H](O)C2O)C(OC(=O)CCC(C)CC)[C@H]1OC(=O)C(C)CC` (stereo partly drawn) [Compound 4], the Zone of inhibition was found to be 14 mm in [1]; 12 mm with Alternaria solani; 10 mm in experiment [2]; 10 mm in the experiment on Fusarium oxysporium; 10 mm with Botrytis cinerea; 15 mm in the experiment on Curvularia lunata. In addition, the Zone of inhibition in the experiment on Peronophythora litchii came out at 12 mm; in the experiment with Rhizoctonia solani, 18 mm; with Penicillium italicum, 18 mm; in experiment [3], 12 mm; with Ustilaginoidea virens, 20 mm; in the experiment on Helminthosporium maydis, 18 mm.
With `CCC(C)CCCCCCC(=O)O[C@@H]1C(CO[C@H]2OC(CO)[C@H](O)[C@H](O)C2O)O[C@H](O[C@H]2OC(CO)[C@@H](O)[C@H](O)C2O)C(OC(=O)CCC(C)CC)[C@H]1OC(=O)C(C)CC` (stereo partly drawn) [Compound 1, 6-O-β-L-mannosyl-3-O-(2-methylbutyryl)-4-O-(8-methyldecanoyl)-2-O-(4-methylhexanoyl)trehalose], the Zone of inhibition in experiment [1] is given as 12 mm; with Alternaria solani, 12 mm; in experiment [2], 16 mm; in the experiment on Fusarium oxysporium, 10 mm; in the experiment with Botrytis cinerea, 15 mm; in the experiment on Curvularia lunata, 12 mm. Besides, the Zone of inhibition with Peronophythora litchii is on record as 13 mm; in the experiment on Rhizoctonia solani, 18 mm; in the experiment on Penicillium italicum, 20 mm; in experiment [3], 17 mm; in the experiment on Ustilaginoidea virens, 22 mm; in the experiment with Helminthosporium maydis, 22 mm.
